The target in the assay is Glutamate receptor ionotropic, AMPA (Rattus norvegicus, UniProt P19490+P19491+P19492+P19493).

The IC50 is the concentration at which inhibition is half-maximal. A higher IC50 goes with weaker potency in that assay.

Description: Antagonist potency against functional AMPA receptor by kainate-induced Ca+2 in rat cerebellar granule neurons in primary culture

Compound `Cc1ccc(C#N)c(/C(O)=C/c2nc3ccc(F)cc3c(=O)n2-c2ccccc2Cl)n1` showed an IC50 of 9.3 nM.

As for `N#Cc1cccnc1/C(O)=C/c1nc2ccc(F)cc2c(=O)n1-c1ccccc1Cl`, the IC50 amounted to 14 nM.

For the compound `N#Cc1ccccc1/C(O)=C/c1nc2ccc(F)cc2c(=O)n1-c1ccccc1Cl`, inhibition was half-maximal at 130 nM (IC50).

Compound `O=c1c2ccccc2nc(/C=C(\O)c2ccccn2)n1-c1ccccc1Cl` displayed an IC50 of 490 nM.

With `O=c1c2cc(F)ccc2nc(/C=C(\O)c2ccccc2F)n1-c1ccccc1Cl`, the IC50 was greater than 30000 nM.

In turn, `O=c1c2ccccc2nc(/C=C(\O)c2ccncc2)n1-c1ccccc1Cl` returned an IC50 of 370 nM.

Compound `Cc1cccc(/C(O)=C/c2nc3ccc(F)cc3c(=O)n2-c2ccccc2Cl)n1` registered an IC50 of 5500 nM.

`O=c1c2cc(F)ccc2nc(/C=C(\O)c2ccccn2)n1-c1ccccc1Cl` had an IC50 of 250 nM.

The compound `CC1=NN=C(c2ccc(N)cc2)c2cc3c(cc2C1)OCO3` [GYKI-52466] came in with an IC50 of 22000 nM.

In the case of `Cc1nc2ccccc2c(=O)n1-c1ccccc1Cl` [MECLOQUALONE], the IC50 is greater than 10000 nM.

In turn, `Cc1ccccc1-n1c(C)nc2ccccc2c1=O` [METHAQUALONE] displayed an IC50 greater than 10000 nM.

Values taken from ChEMBL document CHEMBL1132900, “Methaqualone derivatives are potent noncompetitive AMPA receptor antagonists” (Bioorg Med Chem Lett, 2000).
